This is an account of results in ChEMBL document CHEMBL1201862, “PubChem BioAssay data set” (2004).

Some test systems named below: 786-0; A549; COLO 205; EKVX; HL-60; HT-29; K562; KM12; MDA-MB-231; MDA-MB-435; MDA-N; NCI-H522; NCI/ADR-RES; OVCAR-8; SF-268; SF-295; SF-539; SR; T47D; SK-MEL-2.
What all share (assay): growth of human tumour cells (NCI), 48 h

Structures can show the parent of a compound that is named as a salt.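 Where inhibition never reached the appropriate level, the endpoint shown equals the highest concentration tested. Otherwise, values were interpolated linearly from a five-concentration, 48-hour dose response in 96-well plates. Abbreviation: GI50, concentration required for 50% inhibition of growth.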 Calls of active or inactive are those of the source. Rule as the data show it: active = GI50 up to about 1.1 µM and inactive = higher.

Take `CCN(CC)CCC(=O)NC1c2ccc(Cl)cc2Oc2c(C)cccc21` (stereo not given): the GI50 with 786-0 is 12.6 µM (inactive); with A549, 16.5 µM (inactive); in the experiment with COLO 205, 18.6 µM (inactive); in the experiment with EKVX it was 13.4 µM (inactive); in the experiment on HL-60, 13.9 µM (inactive); in the experiment on HT-29, 12.9 µM (inactive). Besides, the GI50 with K562 was 18.5 µM (inactive); in the experiment with KM12, 15.6 µM (inactive); in the experiment on MDA-MB-231 it was 20.8 µM (inactive); in the experiment on MDA-MB-435, 15.1 µM (inactive); with MDA-N, 16.6 µM (inactive); in the experiment with NCI-H522 it was 17.1 µM (inactive). Further, the GI50 in the experiment with NCI/ADR-RES was 16.8 µM (inactive); in the experiment on OVCAR-8, 16.9 µM (inactive); in the experiment with SF-268, 8.53 µM (inactive); in the experiment on SF-295, 18.6 µM (inactive); in the experiment with SF-539 it was 13.2 µM (inactive); in the experiment on SR it was 18.5 µM (inactive). Further, the GI50 in the experiment on T47D was 14 µM (inactive).
As for `Cc1cc2c(c(C(=O)NCCC(=O)O)c1)Oc1c(cc(C)cc1C(=O)NCCC(=O)O)S2`, the GI50 in the experiment on 786-0, in the experiment on A549, in the experiment on COLO 205, with EKVX, with HT-29 and with K562 was > 100 µM (inactive) each time. In addition, the GI50 in the experiment with KM12, in the experiment on MDA-MB-231, in the experiment on MDA-MB-435, in the experiment with MDA-N, with NCI-H522 and with NCI/ADR-RES was > 100 µM (inactive) each time. The GI50 with OVCAR-8, in the experiment with SF-268, with SF-295, in the experiment with SF-539, in the experiment on SK-MEL-2 and in the experiment on SR was > 100 µM (inactive) each time. Also, in the experiment on T47D, the GI50 was > 100 µM (inactive).
Take `CCOP(=O)(OCC)/C(C#N)=C/c1cccn1C`: the GI50 in the experiment with 786-0, in the experiment on A549, in the experiment on COLO 205, with EKVX, with HT-29 and in the experiment with KM12 was > 100 µM (inactive) in each case. The GI50 in the experiment on MDA-MB-231, with MDA-MB-435, in the experiment with MDA-N, in the experiment with NCI-H522, in the experiment with NCI/ADR-RES and with OVCAR-8 was > 100 µM (inactive) throughout. The GI50 in the experiment on SF-268, with SF-295, with SF-539, in the experiment with SK-MEL-2, in the experiment with SR and with T47D was > 100 µM (inactive) throughout.
With `O=C1CC(C(O)CO)CC(=O)N1` (stereo not given), the GI50 in the experiment on 786-0, with A549, in the experiment with HL-60, with HT-29, with K562 and in the experiment with KM12 was > 100 µM (inactive) each time. Moreover, the GI50 in the experiment on MDA-MB-231, in the experiment on MDA-MB-435, with MDA-N, in the experiment with NCI-H522, in the experiment on NCI/ADR-RES and in the experiment on OVCAR-8 was > 100 µM (inactive) each time. For the same compound, the GI50 in the experiment on SF-268, in the experiment with SF-295, in the experiment on SF-539, in the experiment on SR and in the experiment on T47D was > 100 µM (inactive) throughout.
In the case of `O=C1c2ccccc2C(=O)N1CC1S(=O)(=O)OCCOS1(=O)=O`, the GI50 with 786-0, in the experiment on A549, in the experiment on COLO 205, in the experiment with EKVX, in the experiment with HL-60 and with HT-29 was > 100 µM (inactive) throughout. In addition, the GI50 in the experiment on K562, with MDA-MB-231, with MDA-MB-435, in the experiment on MDA-N, in the experiment with NCI-H522 and in the experiment with NCI/ADR-RES was > 100 µM (inactive) each time. Moreover, the GI50 with OVCAR-8 is > 100 µM (inactive); in the experiment with SF-268 it was > 100 µM (inactive); in the experiment on SF-295 it was > 100 µM (inactive); in the experiment on SF-539, 98.4 µM (inactive); in the experiment on SR, 44.1 µM (inactive); with T47D, > 100 µM (inactive).
For `CCOC(=O)[C@@H]1ON2O[C@@H](OC3CCCCC3c3ccccc3)C[C@H]3OC(=O)[C@@H]1C32` (stereo not given in full), the GI50 is > 100 µM (inactive) in the experiment on 786-0; 80.7 µM (inactive) in the experiment on A549; > 100 µM (inactive) in the experiment with COLO 205; > 100 µM (inactive) in the experiment with EKVX; > 100 µM (inactive) with HT-29; > 100 µM (inactive) in the experiment with K562. In addition, the GI50 with KM12 was > 100 µM (inactive); in the experiment on MDA-MB-231 it was 84.7 µM (inactive); in the experiment with MDA-MB-435, 91.2 µM (inactive); in the experiment on MDA-N, > 100 µM (inactive); with NCI-H522 it was 87.1 µM (inactive); in the experiment with NCI/ADR-RES it was > 100 µM (inactive). The GI50 was > 100 µM (inactive) with OVCAR-8; > 100 µM (inactive) in the experiment with SF-268; > 100 µM (inactive) in the experiment on SF-295; > 100 µM (inactive) with SF-539; 97.9 µM (inactive) with SR; > 100 µM (inactive) with T47D.
Turning to `Cc1ccc(Cc2n[nH]c(=O)[nH]2)cc1`, the GI50 in the experiment on 786-0, with A549, in the experiment with COLO 205, in the experiment with EKVX, in the experiment on HL-60 and with HT-29 was > 100 µM (inactive) throughout. Moreover, the GI50 in the experiment on K562, in the experiment on KM12, in the experiment with MDA-MB-231, in the experiment with MDA-MB-435, in the experiment with MDA-N and in the experiment on NCI/ADR-RES was > 100 µM (inactive) in each case. Further, the GI50 with OVCAR-8, in the experiment on SF-295, with SF-539, in the experiment with SK-MEL-2, with SR and in the experiment with T47D was > 100 µM (inactive) each time.
As for `CO/N=C(\C)c1cccc(Nc2nc3ccccc3c3occc23)c1`, the GI50 in the experiment with 786-0 is 13.8 µM (inactive); with A549, 13.1 µM (inactive); in the experiment with COLO 205, 12.1 µM (inactive); in the experiment on EKVX it was 13.6 µM (inactive); with HL-60 it was 27.7 µM (inactive); in the experiment on HT-29, 5.19 µM (inactive). Also, the GI50 was 16.4 µM (inactive) with K562; 7.59 µM (inactive) in the experiment with KM12; 10.4 µM (inactive) in the experiment with MDA-MB-231; 12.2 µM (inactive) in the experiment on MDA-MB-435; 14.1 µM (inactive) in the experiment on MDA-N; 14.4 µM (inactive) in the experiment on NCI/ADR-RES. Moreover, the GI50 is 17.1 µM (inactive) with OVCAR-8; 15.4 µM (inactive) with SF-268; 13 µM (inactive) with SF-295; 13.6 µM (inactive) in the experiment on SF-539; 11.9 µM (inactive) with SR; 11.1 µM (inactive) in the experiment on T47D.
Regarding `Cc1ccc(/N=N/c2c(O)c(C(=O)O)cc3ccccc23)c(S(=O)(=O)O)c1`, the GI50 in the experiment with 786-0, with A549, in the experiment on COLO 205, in the experiment with EKVX, in the experiment with HT-29 and in the experiment on K562 was > 100 µM (inactive) in each case. The GI50 in the experiment on KM12, in the experiment on MDA-MB-231, in the experiment with MDA-MB-435, in the experiment with MDA-N, in the experiment on NCI-H522 and in the experiment with NCI/ADR-RES was > 100 µM (inactive) each time. The GI50 in the experiment on OVCAR-8, in the experiment on SF-268, in the experiment with SF-295, in the experiment with SK-MEL-2, in the experiment with SR and in the experiment with T47D was > 100 µM (inactive) throughout.
As to `CN(C)CCOC(=O)COc1ccc(Cl)cc1` [CENTROPHENOXINE HYDROCHLORIDE], the GI50 in the experiment with 786-0, in the experiment with A549, in the experiment on COLO 205, with EKVX, in the experiment on HT-29 and with K562 was > 100 µM (inactive) throughout. The GI50 in the experiment with KM12, in the experiment with MDA-MB-231, in the experiment with MDA-MB-435, in the experiment with MDA-N, with NCI-H522 and in the experiment with NCI/ADR-RES was > 100 µM (inactive) throughout. Moreover, the GI50 in the experiment on OVCAR-8, in the experiment on SF-268, in the experiment on SF-295, in the experiment on SF-539, in the experiment on SK-MEL-2 and in the experiment with SR was > 100 µM (inactive) in each case. Besides, the GI50 in the experiment with T47D is > 100 µM (inactive).
As for `CC[C@](C)(O)C(=O)O[C@H]1C(=O)O[C@@H]2C[C@H]3C(C)=CC(=O)[C@@H](O)[C@]3(C)[C@H]3[C@@]4(O)OC[C@]32[C@@H]1[C@@H](C)[C@H]4O` [GLAUCARUBINONE], the GI50 is 0.146 µM (active) with 786-0; 1.21 µM (inactive) in the experiment on A549; 0.815 µM (active) in the experiment on COLO 205; 0.0545 µM (active) in the experiment on EKVX; 0.05 µM (active) with HL-60; 0.05 µM (active) in the experiment on K562. The GI50 was 0.0604 µM (active) in the experiment with KM12; 0.946 µM (active) in the experiment with MDA-MB-231; 1.4 µM (inactive) in the experiment with MDA-MB-435; 0.425 µM (active) with MDA-N; 2.27 µM (inactive) in the experiment on NCI/ADR-RES; 0.0753 µM (active) with OVCAR-8. For the same compound, the GI50 with SF-268 was 0.0661 µM (active); in the experiment with SF-295, 0.116 µM (active); in the experiment on SF-539 it was 0.05 µM (active); in the experiment on SK-MEL-2, 0.0625 µM (active); in the experiment on SR, 0.0453 µM (active); in the experiment on T47D, 0.176 µM (active).
